Values quoted from earlier work in paper PMC8698672, “Selective Anticancer and Antimicrobial Metallodrugs Based on Gold(III) Dithiocarbamate Complexes” (Biomedicines, 2021).

Tested on: Caco-2/TC7 tumor cells
Settings: reference drugs, Caco-2 tumor cells; ref [27]; cited from earlier work

For `CC(=O)OC[C@H]1O[C@@H]([S-])[C@H](OC(C)=O)[C@@H](OC(C)=O)[C@@H]1OC(C)=O.CCP(CC)CC.[Au+]` [auranofin, 2,3,4,6-tetra-o-acetyl-1-thio-b-D-glucopyranosato-(S)-triethylphosphine gold(I)], the IC50 is given as 2100 ± 400 nM.
